Key:
[1] = system: Escherichia coli field strain; experiment: Whole bird bacteria reduction, chill tank (Example 2); assay type: cell-based; conditions: 1.5 h chill tank
Method: The trial events and experimental design used were as follows: • a) For all treatments a total of 190 birds were processed in a normal fashion. Each treatment involved use of 10 birds. • b) A warm (100° F.) bath was prepared containing 5×10^4 DelMarVa (Delaware-Maryland farm area) field Escherichia coli stain bacteria per mL. At least 200 mL of total bath fluid was provided for each bird. • c) All birds (both controls and treated) were randomly immersed into the warm bath. Both the inside and outside carcass areas were immersed to assure complete coverage. • d) Each separate chill tank water solution (normal tap water adjusted pH to 8.5, ice added to produce temperatures of <45° F.) contained 2×10^3 per mL bacteria. • e) The chill tank water solutions (at least 750 mL each) were be prepared for each disinfecting treatment, and birds were immersed for a period of 1.5 hours. • f) Each 10 minutes during the 1.5 hour chilling period, the birds were completely lifted out of solution and then reimersed in the solution. After the 1.5 hour chilling period, the birds were taken from the chill water and drained for 30 seconds, then promptly (within 5 minutes) placed into a sterile whole bird stomacher bag containing 400 mL diluent (Butterfield's Phosphate Diluent) bacteria collection. • g) Diluent (400 mL) was added to each carcass contained in a sterile stomacher bag while making sure to pour the diluent into the inside of the abdominal cavity. The carcass was rinsed inside and out with a rocking motion for one minute (ca. 35 RPM). […] After the fluids had been diluted, 0.1 mL of fluid was be placed on a MacConkey agar plate and bacteria counts determined. In cases where the goal of a 25-250 count on the plate was not achieved, another dilution and replating were conducted. • j) After all carcasses for each treatment had been dipped, water sample bacteria were determined. • k) Total bacteria per bird were calculated. […]

[2] = system: Salmonella enteritidis ATCC 13076; experiment: Bacteria count per bird over 20-day storage (Example 4); assay type: cell-based; conditions: pH 8
Method: A study was conducted to determine the effect of Clorox® bleach, and 1,3-dibromo-5,5-dimethylhydantoin (DBDMH) on carcass bacteria residual after 1.5 hour in a chill tank solution and spoilage 20-day shelf life longevity (caused by bacteria contamination). Tests were conducted at pH 8 (adjusted by trisodium phosphate). Skin pigmentation (Minolta Color Meter L value or Lightness, a value or redness and b value or yellowness) were determined before and post-processing.
In general the study involved normal processing of 56-day-old birds, immersing carcasses first in a warm bath containing 10^4 per mL Escherichia coli, 10^4 per mL Salmonella enteritidis, 10^4 per mL Pseudomonas aeruginosa, 10^4 per mL Campylobacter jejuni, and 10^4 per mL spoilage bacteria each from […] strains (Listeria monocytogenes and Shigella sonnei). Carcass were then immersed in a chill tank “soup”, containing normal organic fluids (blood, fat, skin, and meat particles) and containing various disinfectants (termed test materials).
A DBDMH stock solution and test solutions, a bacteria stock solution, and a “chicken soup” were prepared as in Example 3. In addition, the bacterial broth treatments, the whole bird wash sampling procedure, and the methodologies used for quantitative or qualitative determinations for bacterial organisms were conducted as in Example 3.
In greater detail the trial events and experimental design used in this group of tests were as follows: • a) Test microorganisms used were: • Escherichia coli ATCC 11229 • Pseudomonas aeruginosa ATCC 15442 • Salmonella enteritidis ATCC 13076 • Shigella sonnei ATCC 9290 • Listeria monocytogenes ATCC 7644 • Campylobacter jejuni ATCC 29428 • b) Test Procedure: All test strains were grown individually at 35° C. for 24 hours in the media specified in Table 12. Cells were harvested by centrifugation at 10,000×g for 10 minutes and washed twice with Butterfield's Phosphate Buffer (BPB of pH 7.2). Cells were resuspended in BPB to obtain a cell suspension of approximately 1.0×10^8 CFU/mL for each microorganism. The target inoculum levels were approximately 10^6 CFU/mL in the final test solutions. In the cases of S. enteritidis and P. aeruginosa the species were washed by pouring into prepared sterile centrifuge tubes with cheesecloth filters. The culture was then pelleted and washed using above techniques and repeated 3 times. • c) The birds (56 days old) were processed under normal commercial conditions. • d) The bacteria were added to a large batch of the “chicken soup”, and then aliquots of the resultant mixture were distributed equally among the chill waters used for each test. Then the particular disinfectant composition under test was added to one of the chill waters. […]

CC1(C)C(=O)N(Br)C(=O)N1Br [DBDMH, 1,3-dibromo-5,5-dimethylhydantoin]
Whole Bird Bacteria Reduction (%) ([1]; 50 ppm Cl2 (equivalent)): 99.9999%
Whole Bird Bacteria Reduction (%) ([1]; 100 ppm Cl2 (equivalent)): 99.9999%
Whole Bird Bacteria Reduction (%) ([1]; 150 ppm Cl2 (equivalent)): 99.9999%
average bacteria count per bird, S. enteritidis ([2]; Day 0, 10 ppm): 292 per bird
average bacteria count per bird, S. enteritidis ([2]; Day 0, 20 ppm): 12 per bird
average bacteria count per bird, S. enteritidis ([2]; Day 2, 10 ppm): 344 per bird
average bacteria count per bird, S. enteritidis ([2]; Day 2, 20 ppm): 18 per bird
average bacteria count per bird, S. enteritidis ([2]; Day 4, 10 ppm): 394 per bird
average bacteria count per bird, S. enteritidis ([2]; Day 4, 20 ppm): 27 per bird
average bacteria count per bird, S. enteritidis ([2]; Day 6, 10 ppm): 433 per bird
average bacteria count per bird, S. enteritidis ([2]; Day 6, 20 ppm): 55 per bird
average bacteria count per bird, S. enteritidis ([2]; Day 8, 10 ppm): 507 per bird
average bacteria count per bird, S. enteritidis ([2]; Day 8, 20 ppm): 104 per bird
average bacteria count per bird, S. enteritidis ([2]; Day 10, 10 ppm): 616 per bird
average bacteria count per bird, S. enteritidis ([2]; Day 10, 20 ppm): 212 per bird
average bacteria count per bird, S. enteritidis ([2]; Day 12, 10 ppm): 740 per bird
average bacteria count per bird, S. enteritidis ([2]; Day 12, 20 ppm): 413 per bird
average bacteria count per bird, S. enteritidis ([2]; Day 14, 10 ppm): 919 per bird
average bacteria count per bird, S. enteritidis ([2]; Day 14, 20 ppm): 832 per bird
average bacteria count per bird, S. enteritidis ([2]; Day 16, 10 ppm): 1081 per bird
average bacteria count per bird, S. enteritidis ([2]; Day 16, 20 ppm): 1711 per bird
average bacteria count per bird, S. enteritidis ([2]; Day 18, 10 ppm): 1286 per bird
average bacteria count per bird, S. enteritidis ([2]; Day 18, 20 ppm): 2074 per bird
average bacteria count per bird, S. enteritidis ([2]; Day 20, 10 ppm): 1513 per bird
average bacteria count per bird, S. enteritidis ([2]; Day 20, 20 ppm): 2258 per bird

Source: patent publication US7767240B2, “Microbiological control in poultry processing” (priority 2001, dated 2010)
